Data on three compounds can be found in patent US20200308624A1, “Phosphate and tensin homolog (PTEN) for the detection of autoimmune diseases or conditions” (Universitätsmedizin der Johannes Gutenberg-Universität Mainz, priority 2019, published 2020).

Assay type in all cases: cell-based, human
Assay [1] has as its system Treg-resistant T cells from MS patients. Kind of assay: Suppressor assay: MS T cells cocultured with Treg, proliferation by 3H-Tdr incorporation. The settings on record: anti-CD3 mAb stimulation, FIG. 1E, n=4. On the procedure: A) PBMC from therapy-naïve MS patients (red) or HC (black) were cocultured with Treg and stimulated with anti-CD3 mAb. T cell proliferation was determined by ^3H-Tdr incorporation on day three. Box plots show percentage of suppression in presence of Treg (ratio 4:1) normalized to proliferation of T cells alone as median with interquartile range (n=15), P-values relative to T cells of HC are shown, to avoid familywise error rate bonferroni correction was used p*. B) C) IL-6R expression within CD3+ T cells of PBMC from HC or MS was determined by flow cytometry. One representative of eight independent experiments is shown. D) PKB/c-Akt phosphorylation was determined by flow cytometry within CD3^+ T cells of MS (red) or HC (black). Six different experiments are shown, p-values relative to MFI of HC. E) MS T cells with Treg were stimulated with anti-CD3 mAb without (circle) or with (quadrats) anti-IL-6R mAb or (triangles) Akt-VIII inhibitor. Each dot represents percentage of proliferation with Treg normalized to T cells alone (n=4), p-values to MS T cells.
CD4^+CD25^− T cells (10^5 cells/well, 96 well plate, flat bottom) were stimulated with 0.1 μg/ml anti-CD3 mAb (OKT-3) and cultured in presence or absence of different Treg ratios. CD3-depleted PBMC (5×10^4/well) were used as costimulus. […] T cell proliferation was measured by ^3H-Tdr incorporation using a liquid […] counter. […]

The subject of assay [2] is CD4+CD25- T cells from healthy donors. Kind of assay: Suppressor assay: T cells and Treg cocultured in presence of IL-6 (3H-Tdr). As to conditions: T cells from healthy donors incubated overnight with IL-6 (500 ng/ml). The text has this:
In addition to PKB, also IL-6 and its signaling pathway play a crucial role in whether T cells from MS patients respond to suppression by Treg or not. In the context of autoimmune diseases, it has been investigated how the increased IL-6 production observed in MS can affect PTEN protein expression.
(§1) FIG. 5: IL-6 mediates Treg resistance by inducing the phosphorylation of PKB/c-Akt and downregulation of PTEN in activated T cells A) T cells and Treg were cocultured in presence (grey) or absence (black) of IL-6 and stimulated with anti-CD3 mAb. […] B) PKB/c-Akt phosphorylation was analyzed by flow cytometry within T cells after 24 h of culture with (black) or without IL-6 (grey). C) T cells from HC were incubated for 24 h without IL-6 (black) or with IL-6 (grey) or IL-6 and anti-IL-6R mAb (striped). Shown is the mean fluorescence intensity (MFI) of pPKB/c-Akt in T cells (n=5). D) PBMC from HC were cultured for 24 h in the presence or absence of 500 ng/ml IL-6. […] Total proteins were isolated and PTEN protein expression was analyzed via western blot.
CD4^+CD25^− T cells (10^5 cells/well, 96 well plate, flat bottom) were stimulated with 0.1 μg/ml anti-CD3 mAb (OKT-3) and cultured in presence or absence of different Treg ratios. […] T cell proliferation was measured by ^3H-Tdr incorporation using a liquid […] counter. […]

The test system of the next assay is PKB/c-Akt. Briefly: PKB/c-Akt phosphorylation in T cells after culture with IL-6 (flow cytometry). On the procedure: as §1
Flow cytometric analysis was performed using the following antibodies: anti-human CD3 (UCHT1), anti-human CD4 (RPA-T4), anti-human CD8 (SK1), anti-human CD14 (M5E2), anti-human CD19 (HIB19), all from BD Pharmingen, anti-human CD25 (4E3), anti-human CD127 (MB15-18C9), all from Miltenyi Biotec. […] Cell viability during flow cytometric analysis was determined using 7-AAD and eFluor506 (eBioscience). […] Stained cells were measured on LSRII with FACS Diva Software (BD Bioscience) or FACSVia™ and data was analyzed with BD FACSVia Research Software (BD Biosciences). […]

The next assay relates to PTEN protein. Kind of assay: PTEN protein expression in IL-6-treated activated CD4+ T cells (Western blot). As to conditions: IL-6-treated (500 ng/ml, 24 h) T cells, 2 hours after polyclonal activation, compared to untreated controls. On the procedure:
FIG. 5: IL-6 mediates Treg resistance by inducing the phosphorylation of PKB/c-Akt and downregulation of PTEN in activated T cells A) T cells and Treg were cocultured in presence (grey) or absence (black) of IL-6 and stimulated with anti-CD3 mAb. […] B) PKB/c-Akt phosphorylation was analyzed by flow cytometry within T cells after 24 h of culture with (black) or without IL-6 (grey). C) T cells from HC were incubated for 24 h without IL-6 (black) or with IL-6 (grey) or IL-6 and anti-IL-6R mAb (striped). Shown is the mean fluorescence intensity (MFI) of pPKB/c-Akt in T cells (n=5). D) PBMC from HC were cultured for 24 h in the presence or absence of 500 ng/ml IL-6. CD4^+ T cells were isolated, left unstimulated or were activated with anti-CD3 and anti-CD28 mAb for two hours. Total proteins were isolated and PTEN protein expression was analyzed via western blot.
Cell pellets were lysed in Cell Extraction Buffer (Invitrogen) supplemented with 1 mM PMSF (Invitrogen) and Protease Inhibitor Cocktail (Sigma) for 30 min on ice with vortexing at 10 min intervals. Total protein concentration of cell lysates was determined with Micro BCA Protein Assay Kit (Thermo Fisher Scientific) according to manufacturer's protocol. Protein separation was performed using the NuPAGE® Bis-Tris electrophoresis system (Thermo Fisher Scientific). […] Western blots were analyzed and quantified with ImageJ software.
Background: A western blot detects proteins with antibodies after separation by electrophoresis.

Regarding `O=c1[nH]c2ccccc2n1C1CCN(Cc2ccc(-c3nc4cc5nc[nH]c5cc4nc3-c3ccccc3)cc2)CC1` [Akt VIII], the “responsiveness towards Treg-mediated suppression” value in assay [1] is “restores responsiveness towards Treg-mediated suppression”.
Consider “IL-6: cytokine IL-6 (ImmunoTools) added to cultures”, for which the Treg resistance result in assay [2] is “induce Treg resistance”. Further, in the assay on PKB/c-Akt (T cells from healthy donors, 24 h with IL-6), the “phosphorylation of protein kinase B” value is reported as “increased phosphorylation of protein kinase B”. In addition, the PTEN protein expression result in the assay with PTEN protein is reported as “significant decrease in PTEN protein expression”.
As for “Tocilizumab [anti-IL-6 receptor antibody]”, the “responsiveness towards Treg-mediated suppression” value in assay [1] is listed as “restores responsiveness towards Treg-mediated suppression”. Moreover, the “IL-6-induced hyperactivation of PKB” value with PKB/c-Akt (T cells from HC, 24 h with IL-6 and anti-IL-6R mAb, n=5) is recorded as “abolished this effect”.
